These results are taken from patent US20110184018A1, “METHOD FOR TREATING PERIPHERAL NEUROPATHIC PAIN” (LOHOCLA RESEARCH CORPORATION, priority 2005, published 2011).

The nature of series [1]: Brain levels of DCUKA after intraperitoneal administration. The series is classed as in vivo. Particulars: over at least 2 hours. The method, then:
While the acid forms of the diarylureido-dihalokynurenic acid compounds are detectable in the brain after intravenous or intraperitoneal injection, “prodrug” versions (e.g., esters) were prepared to enhance transport across the blood-brain barrier. FIG. 6 illustrates the brain levels of DCUKA after administration of DCUKA itself, the DCUK-O-methyl ester and the DCUK-O-ethyl ester. […] Accordingly, ethyl esters of the diarylureido-dihalokynurenate compounds are particularly preferred (e.g., DCUK-OEt).

The target in series [2] is T1, glycine recognition site of the NMDA receptor complex (Rattus norvegicus, UniProt P35439).
T1 construct: The telencephalon (cerebral cortex, hippocampus, and striatum) was dissected and homogenized; from tissue; host or cells: rat telencephalon membranes (cerebral cortex, hippocampus, striatum), Triton X-100 treated
As to the kind of experiment: [3H]5,7-DCKA binding assay. Conditions: rat cortical membranes; none = no displacement at 100 μM. The method, then: General receptor-binding procedures. Male Sprague-Dawley rats were decapitated and their brains removed rapidly. The telencephalon (cerebral cortex, hippocampus, and striatum) was dissected and homogenized in 20 volumes of ice-cold 0.32 M sucrose, 20 mM HEPES-KOH (pH 7.2 at room temperature) containing protease inhibitors ([…], 5 mg/mL antipain, 20 mg/mL soybean trypsin inhibitor, 500 μM benzamidine, […] aprotinin, and 500 μM phenylmethylsulfonyl fluoride) with a motor driven glass-TEFLON® fluorocarbon homogenizer (8-10 strokes at setting 1). The homogenate was centrifuged at 800 g for 10 minutes. The pellet was discarded and the supernatant was centrifuged at 20,000 g for 20 minutes. The resulting pellet was resuspended in 20 volumes of distilled water containing 500 μM benzamidine and centrifuged for 20 minutes at 7500 g. Then the supernatant and buffy coat were centrifuged three times (51,500 g for 20 minutes) in the presence of distilled water containing 500 μM benzamidine. All centrifugation steps were carried out at 4° C. The final pellet was frozen rapidly at −80° C.
On the day of the assay, the pelleted membranes were resuspended in 20 volumes of 50 mM HEPES-KOH buffer, pH 7.4, and incubated for 20 minutes at 37° C. followed by centrifugation (51,500 g for 20 minutes). Membranes were then resuspended in 50 mM HEPES-KOH buffer (pH 7.8) containing 0.08% Triton X-100. After stirring for 30 minutes at 4° C., the membranes were pelleted by centrifugation (100,000 g for 20 minutes). The membranes were then washed twice by resuspension in the buffer appropriate for the binding assay and centrifugation (100,000 g for 20 minutes). The final pellet was suspended in assay buffer. The amount of protein in the final membrane preparation was determined with the bicinchoninic acid method (BCA; Pierce Chemical Co., Rockford, Ill.). The final protein concentration used for our studies was 300 to 600 μg/mL. Receptor-binding protocols described below were adapted from published procedures. For all assays, the samples, all in duplicate or triplicate, were placed into scintillation vials containing 5.5 mL of scintillation liquid (Ultima Gold; Packard Instrument Co., Inc., Meriden, Conn.) and the retained radioactivity was determined by conventional scintillation spectroscopy with a Beckman TA-6000 scintillation counter. Radio-ligands were purchased from DuPont-NEN (Boston, Mass.).
[^3H]5,7-Dichlorokynurenic acid (5,7-DCKA)-binding assay. The glycine recognition site of the NMDA receptor complex was labeled with the competitive antagonist [^3H]5,7-dichlorokynurenic acid (5,7-DCKA). […]
Data Analysis. The data were analyzed with SigmaPlot 5.0 and SigmaStat 2.0 (Jandel Scientific, Corte Madera, Calif.) software. […]

Turning to `CCOC(=O)c1cc(NC(=O)N(c2ccccc2)c2ccccc2)c2c(Cl)cc(Cl)cc2n1` [DCUK-OEt, N,N-diphenyl-4-ureido-5,7-dichloro-2-carboxy quinoline ethyl ester], the “levels of DCUKA in the brain generated by the ester” value in series [1] is “significantly improved levels of DCUKA in the brain”. Regarding `O=C(O)c1cc(NC(=O)N(c2ccccc2)c2ccccc2)c2c(Cl)cc(Cl)cc2n1` [DCUKA, N,N-diphenyl-4-ureido-5,7-dichloro-2-carboxyquinoline], in series [2], the IC50 – broadly, the concentration at which inhibition is half-maximal – is 28 µM.
